± gives the standard deviation of the averaged measurements.
System: HepaRG
Test: LDH release cytotoxicity, % of total lysis control; higher = more cytotoxic
Conditions: 48 h
Summary of the method: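 Eight-point half-log series of test chemicals, the highest at 100 µM, were given in duplicate for 48 h to single-lot HepaRG cells on collagen I-coated 96-well plates in serum-free induction medium with 0.5% DMSO. A Tecan Safire read resorufin fluorescence from CytoTox-ONE as a measure of LDH in 50 µL spent medium, with 0.1% Triton X in total lysis wells. Percent cytotoxicity was normalized to on-plate vehicle and total lysis controls and averaged over the duplicates.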

With `Cc1ncc(C(CCCCCCc2ccc3c(n2)NCCC3)CC(=O)O)cn1` (centres undefined) the LDH release cytotoxicity (0.03162 µM) was -1.55 ± 0.6%, the LDH release cytotoxicity (0.1 µM) was -1.82 ± 1.1% and the LDH release cytotoxicity (0.3162278 µM) was -1.74 ± 0.75%. It also gave an LDH release cytotoxicity (1 µM) of -2.04 ± 0.057%, an LDH release cytotoxicity (3.16228 µM) of -1.49 ± 1.3% and an LDH release cytotoxicity (10 µM) of -1.25 ± 0.094%. It also gave an LDH release cytotoxicity (31.6228 µM) of -1.33 ± 0.38% and an LDH release cytotoxicity (100 µM) of 0.986 ± 0.45%.

`Clc1cc(Cl)c2c(c1)N=C1CCCCCN1C2` gave an LDH release cytotoxicity (0.03162 µM) of -2.23 ± 0.45%, an LDH release cytotoxicity (0.1 µM) of -1.38 ± 0.19% and an LDH release cytotoxicity (0.3162278 µM) of -0.748 ± 0.22%. It also gave an LDH release cytotoxicity (1 µM) of -1.45 ± 0.52%, an LDH release cytotoxicity (3.16228 µM) of -1.34 ± 0.11% and an LDH release cytotoxicity (10 µM) of 1.41 ± 0.42%. It also gave an LDH release cytotoxicity (31.6228 µM) of 1.58 ± 0.34% and an LDH release cytotoxicity (100 µM) of 3.36 ± 0.44%.

`O=C(NS(=O)(=O)C=Cc1cccs1)c1ccc(F)cc1Br` showed an LDH release cytotoxicity (0.03162 µM) of -1.33 ± 0.59%, an LDH release cytotoxicity (0.1 µM) of -1.47 ± 0.055% and an LDH release cytotoxicity (0.3162278 µM) of -1.39 ± 0.25%. The LDH release cytotoxicity (1 µM) was -2.27 ± 0.8%, the LDH release cytotoxicity (3.16228 µM) was -1.8 ± 0.55% and the LDH release cytotoxicity (10 µM) was -1.418 ± 0.0065%. It also gave an LDH release cytotoxicity (31.6228 µM) of -0.73 ± 0.11% and an LDH release cytotoxicity (100 µM) of -0.319 ± 0.11%.

For `O=C(NS(=O)(=O)C=Cc1ccccc1)c1ccc(F)cc1Cl`, the LDH release cytotoxicity (0.03162 µM) was -0.138 ± 0.18%, the LDH release cytotoxicity (0.1 µM) was -1.32 ± 0.77% and the LDH release cytotoxicity (0.3162278 µM) was -0.79 ± 0.41%. It also gave an LDH release cytotoxicity (1 µM) of -2.23 ± 0.62%, an LDH release cytotoxicity (3.16228 µM) of -1.4 ± 0.85% and an LDH release cytotoxicity (10 µM) of -0.621 ± 0.72%. The LDH release cytotoxicity (31.6228 µM) was -0.552 ± 1.1% and the LDH release cytotoxicity (100 µM) was 1.91 ± 1.4%.

In the case of `O=C(Nc1ccc2[nH]ccc2c1)c1cc2cc(F)ccc2n1Cc1cccc(F)c1`, the LDH release cytotoxicity (0.02625 µM) is reported as -0.0757 ± 2.2%, the LDH release cytotoxicity (0.083 µM) is reported as -0.934 ± 1.2% and the LDH release cytotoxicity (0.262469 µM) is reported as -1.53 ± 0.6%. It also gave an LDH release cytotoxicity (0.83 µM) of -0.536 ± 0.036%, an LDH release cytotoxicity (2.62469 µM) of -0.9 ± 0.47% and an LDH release cytotoxicity (8.3 µM) of -0.744 ± 0.035%. For the same compound, the LDH release cytotoxicity (26.2469 µM) was 8.37 ± 1.7% and the LDH release cytotoxicity (83 µM) was 93.9 ± 2.4%.

With `N#Cc1ccc(N(CC(N)=O)CC(F)(F)F)cc1C(F)(F)F` the LDH release cytotoxicity (0.03162 µM) was -0.784 ± 0.86%, the LDH release cytotoxicity (0.1 µM) was -0.777 ± 1.4% and the LDH release cytotoxicity (0.3162278 µM) was -1.03 ± 1.4%. It also gave an LDH release cytotoxicity (1 µM) of -1.38 ± 0.065%, an LDH release cytotoxicity (3.16228 µM) of -0.891 ± 1.1% and an LDH release cytotoxicity (10 µM) of 0.346 ± 0.016%. The LDH release cytotoxicity (31.6228 µM) was -0.599 ± 0.47% and the LDH release cytotoxicity (100 µM) was -0.34 ± 0.95%.

With `NC(=O)N(O)C1COc2cc(OCc3ccccc3)ccc21` (centres undefined) the LDH release cytotoxicity (0.02846 µM) was -1.76 ± 0.2%, the LDH release cytotoxicity (0.09 µM) was -2.99 ± 1.7% and the LDH release cytotoxicity (0.284605 µM) was -1.03 ± 1.1%. The LDH release cytotoxicity (0.9 µM) was -2.27 ± 0.15%, the LDH release cytotoxicity (2.84605 µM) was -0.514 ± 0.72% and the LDH release cytotoxicity (9 µM) was 0.238 ± 0.36%. The LDH release cytotoxicity (28.4605 µM) was 3.46 ± 0.72% and the LDH release cytotoxicity (90 µM) was 22.46 ± 0.1%.

`O=C(N[C@H](c1ccccc1)[C@@H]1CN2CCC1CC2)c1c(Cl)ccc(C(F)(F)F)c1Cl` showed an LDH release cytotoxicity (0.0292511 µM) of -0.907 ± 0.47%, an LDH release cytotoxicity (0.0925 µM) of -0.886 ± 1.1% and an LDH release cytotoxicity (0.292511 µM) of -1.02 ± 1.4%. The LDH release cytotoxicity (0.925 µM) was -1.22 ± 0.28%, the LDH release cytotoxicity (2.9251068 µM) was -0.0305 ± 0.38% and the LDH release cytotoxicity (9.25 µM) was 1.38 ± 1.5%. The LDH release cytotoxicity (29.251068 µM) was 16.1 ± 3% and the LDH release cytotoxicity (92.5 µM) was 82.5 ± 6%.

With `O=C1c2ccccc2C(=O)N1CCc1noc(-c2ccc(CN3CCCCCC3)s2)n1` the LDH release cytotoxicity (0.026721 µM) was 1.83 ± 0.47%, the LDH release cytotoxicity (0.0845 µM) was -0.403 ± 0.25% and the LDH release cytotoxicity (0.267212 µM) was -0.399 ± 0.032%. The LDH release cytotoxicity (0.845 µM) was -0.205 ± 0.38%, the LDH release cytotoxicity (2.67212 µM) was -7.752 ± 0.013% and the LDH release cytotoxicity (8.45 µM) was 7.6 ± 1.2%. The LDH release cytotoxicity (26.7213 µM) was 1.47 ± 2.3% and the LDH release cytotoxicity (84.5 µM) was -1.5 ± 0.19%.

For `O=C(O)c1cccc(N(Cc2cccnc2)c2ccc(OC(F)F)c(OC(F)F)c2)c1`, the LDH release cytotoxicity (0.03162 µM) was -1.28 ± 0.33%, the LDH release cytotoxicity (0.1 µM) was -1.45 ± 0.3% and the LDH release cytotoxicity (0.3162278 µM) was -1.1 ± 0.23%. The LDH release cytotoxicity (1 µM) was -1.77 ± 0.18%, the LDH release cytotoxicity (3.16228 µM) was -1.858 ± 0.0033% and the LDH release cytotoxicity (10 µM) was -2.03 ± 0.35%. The LDH release cytotoxicity (31.6228 µM) was -2.58 ± 0.68% and the LDH release cytotoxicity (100 µM) was -1.73 ± 0.97%.

Compound `O=C(O)c1cccc(CC2COc3ccc(OCc4nc5cc(F)ccc5s4)cc3C2O)c1` (centres undefined) has an LDH release cytotoxicity (0.03162 µM) of -0.0534 ± 0.17%, an LDH release cytotoxicity (0.1 µM) of -0.136 ± 0.15% and an LDH release cytotoxicity (0.3162278 µM) of -0.338 ± 0.55%. For the same compound, the LDH release cytotoxicity (1 µM) was -1.53 ± 0.39%, the LDH release cytotoxicity (3.16228 µM) was -0.67 ± 0.41% and the LDH release cytotoxicity (10 µM) was -0.7031 ± 0.0048%. It also gave an LDH release cytotoxicity (31.6228 µM) of 0.475 ± 0.99% and an LDH release cytotoxicity (100 µM) of 39.6 ± 3.9%.

`O=C(O)C1(c2ccc3c(c2)OCC(Cc2ccc(-c4ccccc4)cc2)C3O)CCCC1` (centres undefined) gave an LDH release cytotoxicity (0.03162 µM) of -0.731 ± 0.23%, an LDH release cytotoxicity (0.1 µM) of -0.599 ± 0.46% and an LDH release cytotoxicity (0.3162278 µM) of -0.19 ± 0.2%. For the same compound, the LDH release cytotoxicity (1 µM) was -0.676 ± 0.19%, the LDH release cytotoxicity (3.16228 µM) was -0.648 ± 0.37% and the LDH release cytotoxicity (10 µM) was 0.306 ± 0.15%. It also gave an LDH release cytotoxicity (31.6228 µM) of 2.92 ± 0.35% and an LDH release cytotoxicity (100 µM) of 72.9 ± 7%.

For `Oc1ccc2c(c1)OCC(N1CCC(O)(c3ccc(F)cc3)CC1)C2O` (centres undefined), the LDH release cytotoxicity (0.01581 µM) was -1 ± 0.72%, the LDH release cytotoxicity (0.05 µM) was 0.886 ± 1.8% and the LDH release cytotoxicity (0.1581139 µM) was 0.0464 ± 0.5%. For the same compound, the LDH release cytotoxicity (0.5 µM) was 0.111 ± 0.36%, the LDH release cytotoxicity (1.5811388 µM) was 0.298 ± 0.66% and the LDH release cytotoxicity (5 µM) was 0.5713 ± 0.0015%. It also gave an LDH release cytotoxicity (15.8114 µM) of 1.05 ± 0.36% and an LDH release cytotoxicity (50 µM) of 0.322 ± 0.4%.

Work on `OCC(CO)n1cnc(-c2ccc(F)cc2)c1-c1ccnc(Oc2ccccc2)n1` yielded an LDH release cytotoxicity (0.029093 µM) of -1.79 ± 1.4%, an LDH release cytotoxicity (0.092 µM) of -1.44 ± 0.51% and an LDH release cytotoxicity (0.29093 µM) of -0.719 ± 2.1%. It also gave an LDH release cytotoxicity (0.92 µM) of -1.96 ± 0.076%, an LDH release cytotoxicity (2.9092954 µM) of -2.48 ± 0.61% and an LDH release cytotoxicity (9.2 µM) of -2.62 ± 0.29%. It also gave an LDH release cytotoxicity (29.093 µM) of 0.252 ± 0.39% and an LDH release cytotoxicity (92 µM) of 51.2 ± 11%.

`O=C(O)CCN(C1(C(=O)NO)CCCC1)S(=O)(=O)c1ccc(Oc2ccc(F)cc2)cc1` gave an LDH release cytotoxicity (0.03162 µM) of -0.305 ± 0.084%, an LDH release cytotoxicity (0.1 µM) of -1.01 ± 0.31% and an LDH release cytotoxicity (0.3162278 µM) of -0.589 ± 0.48%. The LDH release cytotoxicity (1 µM) was -0.176 ± 0.047%, the LDH release cytotoxicity (3.16228 µM) was -0.0966 ± 0.082% and the LDH release cytotoxicity (10 µM) was 0.986 ± 0.25%. It also gave an LDH release cytotoxicity (31.6228 µM) of 0.193 ± 0.77% and an LDH release cytotoxicity (100 µM) of 1.19 ± 0.31%.

`O=C(NO)C1(NS(=O)(=O)c2ccc(Oc3ccc(F)cc3)cc2)CCOCC1` was tested, and the LDH release cytotoxicity (0.03162 µM) was 0.225 ± 0.2%, the LDH release cytotoxicity (0.1 µM) was -0.912 ± 0.77% and the LDH release cytotoxicity (0.3162278 µM) was -0.649 ± 0.23%. For the same compound, the LDH release cytotoxicity (1 µM) was -0.54 ± 0.41%, the LDH release cytotoxicity (3.16228 µM) was -0.318 ± 0.55% and the LDH release cytotoxicity (10 µM) was -0.00829 ± 0.11%. For the same compound, the LDH release cytotoxicity (31.6228 µM) was -1.25 ± 0.49% and the LDH release cytotoxicity (100 µM) was 10.5 ± 1.4%.

`N#CC1CC(F)(F)CN1C(=O)CNC1CC2CCC(C1)N2c1ncccn1` (centres undefined) showed an LDH release cytotoxicity (0.03162 µM) of -1.64 ± 0.046%, an LDH release cytotoxicity (0.1 µM) of -2.99 ± 0.32% and an LDH release cytotoxicity (0.3162278 µM) of -2.24 ± 0.023%. It also gave an LDH release cytotoxicity (1 µM) of -2.72 ± 0.35%, an LDH release cytotoxicity (3.16228 µM) of -2.06 ± 0.031% and an LDH release cytotoxicity (10 µM) of -1.96 ± 0.71%. It also gave an LDH release cytotoxicity (31.6228 µM) of -1.33 ± 0.77% and an LDH release cytotoxicity (100 µM) of -1.49 ± 0.99%.

For `O=C(NC1CN2CCC1CC2)c1ccc2c(c1)OCCO2` (centres undefined), the LDH release cytotoxicity (0.03162 µM) was -2.41 ± 0.21%, the LDH release cytotoxicity (0.1 µM) was -1.45 ± 0.99% and the LDH release cytotoxicity (0.3162278 µM) was -1.86 ± 0.11%. It also gave an LDH release cytotoxicity (1 µM) of -1.29 ± 0.88%, an LDH release cytotoxicity (3.16228 µM) of -1.81 ± 0.071% and an LDH release cytotoxicity (10 µM) of -1.38 ± 0.38%. It also gave an LDH release cytotoxicity (31.6228 µM) of -1.38 ± 0.035% and an LDH release cytotoxicity (100 µM) of 0.204 ± 0.59%.
